Earlier results as cited in PMC6270667, “Loddigesiinols G–J: α-Glucosidase Inhibitors from Dendrobium loddigesii” (Molecules, 2014).

Target: α-glucosidase (Saccharomyces cerevisiae, UniProt P53341)
Parameters: method as in PMID 16478243
Settings: reported in the literature

Sequence of α-glucosidase (P53341 whole entry): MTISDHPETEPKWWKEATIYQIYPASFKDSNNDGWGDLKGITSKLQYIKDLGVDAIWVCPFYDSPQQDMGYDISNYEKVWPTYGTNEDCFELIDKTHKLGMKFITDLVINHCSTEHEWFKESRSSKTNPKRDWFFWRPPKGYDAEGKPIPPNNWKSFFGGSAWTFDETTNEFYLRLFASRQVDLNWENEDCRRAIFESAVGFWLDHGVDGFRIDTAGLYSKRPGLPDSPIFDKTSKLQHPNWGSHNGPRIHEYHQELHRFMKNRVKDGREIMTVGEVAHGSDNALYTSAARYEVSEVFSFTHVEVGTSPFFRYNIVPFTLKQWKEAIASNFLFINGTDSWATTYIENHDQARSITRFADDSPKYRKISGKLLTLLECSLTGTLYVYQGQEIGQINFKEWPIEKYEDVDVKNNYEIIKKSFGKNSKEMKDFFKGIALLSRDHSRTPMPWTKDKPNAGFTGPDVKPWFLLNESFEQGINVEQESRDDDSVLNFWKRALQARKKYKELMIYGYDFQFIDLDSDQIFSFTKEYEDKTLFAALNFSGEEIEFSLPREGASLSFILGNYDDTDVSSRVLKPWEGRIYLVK

In the case of Oc1ccc(/C=C/c2cc(O)cc(O)c2)cc1 [trans-Resveratrol, trans-resveratrol], the “α-glucosidase inhibitory effect compared with the clinical drug acarbose” value is listed as “more potent inhibitory effect than the clinical drug acarbose”.
